“And” between values parts separate entries of the source, which are not always exact repeats. Equal values may be shown once. “Also recorded” adds a separate entry of the source.
Key:
[1] = system: T1, SWELL1 protein in 3T3-F442A preadipocytes; experiment: SWELL1 protein western blot in preadipocytes; type: cell-based, murine; details: 10 µM, 96 h
T1 construct: host or cells: 3T3-F442A preadipocytes and differentiated adipocytes (wild type)
Experimental: In the case of 3T3-F442A adipocytes, the WT and KO cells were treated with either vehicle (DMSO), 1 or 10 µM SN-40X (after 7–11 days of differentiation) for 96 h and then stimulated with 0 and 10 nM insulin/serum-containing media with vehicle (DMSO) or SN-40X for 15 min for SWELL1 detection. […] To simulate glucolipotoxicity, 8 mM sodium palmitate was dissolved in 18.4% fatty-acid free BSA at 37 °C in DMEM medium with 25 mM glucose to obtain a conjugation ratio of 1:3 palmitate:BSA[80].
(§1) Adipocytes were washed twice in ice-cold phosphate buffer saline and lysed in RIPA buffer (150 mM NaCl, 20 mM HEPES, 1% NP-40, 5 mM EDTA, pH 7.4) with proteinase/phosphatase inhibitors (Roche). The cell lysate was further sonicated in 10 s cycle intervals 2–3 times and centrifuged at 18,407×g for 30 min at 4 °C and repeated one more time to remove the excess fat. The supernatant was collected and further estimated for protein concentration using a DC protein assay kit (Bio-Rad). Fat and liver tissues were homogenized and suspended in RIPA buffer with inhibitors and further processed in a similar fashion as described above. HUVECs were also prepared in a similar fashion except the lysates were spun only once to remove the cells debris to obtain the clear supernatant. […] The images were further analyzed for band intensities using ImageJ software. […]

murine islets = experiment: GSIS perifusion of palmitate-treated murine islets; type: cell-based, mouse; details: 10 µM for 4 days prior to and during 1 mM palmitate 16 h, washed off during GSIS
[2] = system: T2, SWELL1 protein in adipose tissue; experiment: SWELL1 protein in adipose tissue of treated T2D mice; type: in vivo, mouse
T2 construct: from tissue; host or cells: eWAT of HFD-fed C57BL/6 mice; inguinal fat of KKA^y mice
Experimental: All compounds were dissolved in Kolliphor® EL (Sigma, #C5135).
as §1, with “supernatant. For islets, either human or mouse islets were washed twice with phosphate buffer saline (PBS) and lysed using RIPA buffer containing protease and phosphatase inhibitors. The lysate was further clarified by freezing in liquid nitrogen for about 10 s for three cycles. The supernatant was collected from the whole lysate centrifuged at 16,260×g for 20 min at 4 °C.” for “supernatant.”

primary hepatocytes = experiment: Signaling in cultured primary hepatocytes; type: cell-based, mouse; details: 10 µM, 24–48 h, SWELL1-dependent
Experimental: For primary hepatocytes isolation, the SWELL1^fl/fl (Wildtype, WT) and Albumin-Cre/SWELL1^fl/fl (Knockout, KO) mice were anesthetized using isoflurane. A 24 G i.v. catheter was inserted into the portal vein and a buffer containing HBSS (Ca^2+ and Mg^2+ free) + 0.5 mM EGTA was perfused through the liver at a rate of 4.5 mL/min. The portal vein was quickly cut after the perfusion began. The liver was perfused until it was free from blood and subsequently perfused with DMEM + 1x Pyruvate+ Type IV Collagenase (Sigma C5138) (1 mg/mL) for 4–5 min until the liver was soft. The liver was excised and put into 10 mL DMEM + collagenase solution. The tissue was broken down by agitation and passed through 25- and 10-mL pipette until the cells were free. The cells were suspended in 15 mL cold DMEM + 10% FBS + 1% P/S (penicillin and streptomycin). The cells were then passed through a 100 µm filter and spun at 50×g for 2 min. The supernatant was discarded and the cell pellet was washed with 25 mL of DMEM + 10% FBS + 1% P/S media three times. Cells were checked for viability by diluting 1:2 with Trypan blue and batches with >80% viability were used. The hepatocytes were then plated on Type I Collagen (75 µg/mL) coated dish with a density of 500,000 cells per well (6-well) in DMEM + 10% FBS + 1% P/S media.

T2D KKAy mice = experiment: Plasma adiponectin and FGF21 ELISA; type: in vivo, mouse; details: 5 mg/kg i.p. daily × 5 days, vs vehicle
Experimental: Plasma adiponectin and FGF21 levels were measured using Mouse Adiponectin/Acrp30 Quantikine ELISA (Bio-Techne R&D Systems, MRP300) and mouse/rat FGF21 ELISA (BioVendor R&D, RD291108200R) kits respectively, as per the manufacturer’s instructions.

ICl,SWELL = system: ICl,SWELL; parameters: method as in PMID 11724753; details: cited from earlier work
[3] = parameters: method as in PMID 3306216; details: cited from earlier work
[4] = parameters: method as in Zhang et al., Experimental Neurology, 2008; details: ref Zhang et al., Experimental Neurology, 2008; cited from earlier work

SMILES: CCCCC1(C2CCCC2)Cc2cc(OCCCC(=O)O)c(Cl)c(Cl)c2C1=O (stereo not shown) [SN-401, 4-((2-butyl-6,7-dichloro-2-cyclopentyl-1-oxo-2,3-dihydro-1H-inden-5-yl)oxy)butanoic acid]
- SWELL1 protein expression [1]: threefold
- glucose-stimulated insulin secretion after palmitate (murine islets): normalized
- SWELL1 expression in adipose tissue ([2]; HFD-fed T2D mice, 5 mg/kg i.p.): twofold
- SWELL1 expression in adipose tissue ([2]; KKAy T2D mice, 5 mg/kg i.p. × 5 days): threefold
- pAS160 in primary hepatocytes (primary hepatocytes): robustly induces
- serum FGF21 increase (T2D KKAy mice): 2.8 fold and 3 fold
- serum adiponectin (T2D KKAy mice): unchanged; also recorded: no differences
- IC50 (ICl,SWELL): ~5 µM
- diuretic activity [3]: minimal diuretic activity
- blood brain barrier passage [4]: does not cross the blood brain barrier

Source: PMC8831520, “Small molecule SWELL1 complex induction improves glycemic control and nonalcoholic fatty liver disease in murine Type 2 diabetes” (Nature Communications, 2022)
